Results reported in patent US12077503B2, “Substituted cyclic amides and their use as herbicides” (FMC CORPORATION, priority 2015, dated 2024).

Legend:
Format in all cases: in vivo
[1] = system: ryegrass, Italian (Italian ryegrass, Lolium multiflorum); test: Test A preemergence; conditions: Lolium multiflorum, pre-emergence, 240 h, 0 to 100 scale where 0 is no effect and 100 is complete control, read-out: Ryegrass, Italian plant response rating
How it was run: (§1)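 Visual injury, scored on a 0–100 scale relative to untreated controls, was recorded about 10 d after application. Treatments were a preemergence soil spray over planted seeds or a postemergence spray on plants at the one- to two-leaf stage, 2 to 10 cm tall, all in loam soil–sand blend in the greenhouse.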

[2] = system: barnyardgrass (Echinochloa crus-galli); test: Test A preemergence; conditions: Echinochloa crus-galli, pre-emergence, 240 h, 0 to 100 scale where 0 is no effect and 100 is complete control, read-out: Barnyardgrass plant response rating
How it was run: as §1

[3] = system: giant foxtail (Setaria faberii); test: Test A preemergence; conditions: Setaria faberi, pre-emergence, 240 h, 0 to 100 scale where 0 is no effect and 100 is complete control, read-out: Foxtail, Giant plant response rating
How it was run: as §1

[4] = system: pigweed (Amaranthus retroflexus); test: Test A preemergence; conditions: Amaranthus retroflexus, pre-emergence, 240 h, 0 to 100 scale where 0 is no effect and 100 is complete control, read-out: Pigweed plant response rating
Kochia (Kochia scoparia) [5] = test: Test A preemergence; conditions: Bassia scoparia, pre-emergence, 240 h, 0 to 100 scale where 0 is no effect and 100 is complete control, read-out: Kochia plant response rating
How it was run: as §1

[6] = system: ragweed (common ragweed, Ambrosia elatior); test: Test A preemergence; conditions: Ambrosia artemisiifolia, pre-emergence, 240 h, 0 to 100 scale where 0 is no effect and 100 is complete control, read-out: Ragweed plant response rating
How it was run: as §1

[7] = system: wheat (Triticum aestivum); test: Test A postemergence; conditions: Triticum aestivum, post-emergence, 240 h
How it was run: as §1

corn (Zea mays) = test: Test A postemergence; conditions: Zea mays, post-emergence, 240 h
How it was run: as §1

[8] = system: ryegrass, Italian (Italian ryegrass, Lolium multiflorum); test: Test A postemergence; conditions: Lolium multiflorum, post-emergence, 240 h
How it was run: as §1

[9] = system: blackgrass (Alopecurus myosuroides); test: Test A postemergence; conditions: Alopecurus myosuroides, post-emergence, 240 h
How it was run: as §1

[10] = system: giant foxtail (Setaria faberii); test: Test A postemergence; conditions: Setaria faberi, post-emergence, 240 h
How it was run: as §1

[11] = system: pigweed (Amaranthus retroflexus); test: Test A postemergence; conditions: Amaranthus retroflexus, post-emergence, 240 h
How it was run: as §1

Kochia (Kochia scoparia) [12] = test: Test A postemergence; conditions: Bassia scoparia, post-emergence, 240 h
How it was run: as §1

[13] = system: Galium (catchweed bedstraw, Galium aparine); test: Test A postemergence; conditions: Galium, post-emergence, 240 h
How it was run: as §1

[14] = system: ragweed (common ragweed, Ambrosia elatior); test: Test A postemergence; conditions: Ambrosia artemisiifolia, post-emergence, 240 h
How it was run: as §1

[15] = system: ducksalad (Heteranthera limosa); test: Test B flooded paddy test; conditions: Heteranthera limosa, 250 g ai/ha, Flood; 0 to 100 scale where 0 is no effect and 100 is complete control; read-out: Ducksalad plant response rating
How it was run: (§2)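 Response scored visually against untreated controls, 0 = no effect and 100 = complete control, 13–15 d after treatment in the greenhouse. Compounds added to paddy water held 3 cm above soil surface. Treatment given at 2-leaf stage.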

rice (Oryra sativa) = test: Test B flooded paddy test; conditions: Oryza sativa, 250 g ai/ha, Flood; 0 to 100 scale where 0 is no effect and 100 is complete control; read-out: Rice plant response rating
How it was run: as §2

[16] = system: barnyardgrass (Echinochloa crus-galli); test: Test B flooded paddy test; conditions: Echinochloa crus-galli, 250 g ai/ha, Flood; 0 to 100 scale where 0 is no effect and 100 is complete control; read-out: Barnyardgrass plant response rating
How it was run: as §2

[17] = system: sedge, umbrella (small-flower umbrella sedge, Cyperus difformis); test: Test B flooded paddy test; conditions: Cyperus difformis, 250 g ai/ha, Flood; 0 to 100 scale where 0 is no effect and 100 is complete control; read-out: Sedge, Umbrella plant response rating
How it was run: as §2

[18] = 125 g ai/ha, preemergence, approx. 10 d

CN1C[C@H](c2cc(C(F)F)cs2)[C@@H](C(=O)Nc2cccc(F)n2)C1=O [Compound 1090]
30%: pest or weed control at 31 g/ha ([1]; 31 g ai/ha, Preemergence) | pest or weed control at 125 g/ha (Kochia (Kochia scoparia) [5]; [18]) | pest or weed control at 125 g/ha (Kochia (Kochia scoparia) [12]; 125 g ai/ha, postemergence, visual injury on 0 to 100 scale (0 no effect, 100 complete control), approx. 10 d, read-out: Kochia plant response rating) | pest or weed control at 125 g/ha ([13]; 125 g ai/ha, postemergence, visual injury on 0 to 100 scale (0 no effect, 100 complete control), approx. 10 d, read-out: Galium plant response rating) | pest or weed control at 31 g/ha ([13]; Postemergence, 31 g ai/ha, visual injury after approx. 10 d, 0 to 100 scale, 0 no effect, 100 complete control, read-out: Plant response rating, Galium)
90%: pest or weed control at 125 g/ha [2, 18]
100%: pest or weed control at 125 g/ha [3, 18]
0%: pest or weed control at 125 g/ha [1, 18] | pest or weed control at 31 g/ha ([4]; 31 g ai/ha, Preemergence) | pest or weed control at 125 g/ha [4, 18] | pest or weed control at 31 g/ha ([6]; 31 g ai/ha, Preemergence) | pest or weed control at 125 g/ha [6, 18] | plant injury at 31 g/ha ([7]; Postemergence, 31 g ai/ha, visual injury after approx. 10 d, 0 to 100 scale, 0 no effect, 100 complete control, read-out: Plant response rating, Wheat) | Corn plant response rating (crop injury, 0 = no effect, 100 = complete kill) at 31 g/ha (corn (Zea mays); Postemergence, 31 g ai/ha, visual injury after approx. 10 d, 0 to 100 scale, 0 no effect, 100 complete control) | pest or weed control at 125 g/ha ([8]; 125 g ai/ha, postemergence, visual injury on 0 to 100 scale (0 no effect, 100 complete control), approx. 10 d, read-out: Ryegrass, Italian plant response rating) | pest or weed control at 31 g/ha ([8]; Postemergence, 31 g ai/ha, visual injury after approx. 10 d, 0 to 100 scale, 0 no effect, 100 complete control, read-out: Plant response rating, Ryegrass, Italian) | pest or weed control at 31 g/ha ([9]; Postemergence, 31 g ai/ha, visual injury after approx. 10 d, 0 to 100 scale, 0 no effect, 100 complete control, read-out: Plant response rating, Blackgrass) | pest or weed control at 125 g/ha ([11]; 125 g ai/ha, postemergence, visual injury on 0 to 100 scale (0 no effect, 100 complete control), approx. 10 d, read-out: Pigweed plant response rating) | pest or weed control at 31 g/ha ([11]; Postemergence, 31 g ai/ha, visual injury after approx. 10 d, 0 to 100 scale, 0 no effect, 100 complete control, read-out: Plant response rating, Pigweed) | pest or weed control at 31 g/ha (Kochia (Kochia scoparia) [12]; Postemergence, 31 g ai/ha, visual injury after approx. 10 d, 0 to 100 scale, 0 no effect, 100 complete control, read-out: Plant response rating, Kochia) | pest or weed control at 125 g/ha ([14]; 125 g ai/ha, postemergence, visual injury on 0 to 100 scale (0 no effect, 100 complete control), approx. 10 d, read-out: Ragweed plant response rating) | pest or weed control at 31 g/ha ([14]; Postemergence, 31 g ai/ha, visual injury after approx. 10 d, 0 to 100 scale, 0 no effect, 100 complete control, read-out: Plant response rating, Ragweed) | pest or weed control at 250 g/ha (rice (Oryra sativa)) | pest or weed control at 250 g/ha [17]
60%: pest or weed control at 31 g/ha ([3]; 31 g ai/ha, Preemergence)
80%: pest or weed control at 125 g/ha ([10]; 125 g ai/ha, postemergence, visual injury on 0 to 100 scale (0 no effect, 100 complete control), approx. 10 d, read-out: Foxtail, Giant plant response rating) | pest or weed control at 250 g/ha [16]
95%: pest or weed control at 250 g/ha [15]
10%: pest or weed control at 31 g/ha ([2]; 31 g ai/ha, Preemergence)
20%: pest or weed control at 31 g/ha (Kochia (Kochia scoparia) [5]; 31 g ai/ha, Preemergence) | plant injury at 125 g/ha ([7]; 125 g ai/ha, postemergence, visual injury on 0 to 100 scale (0 no effect, 100 complete control), approx. 10 d, read-out: Wheat plant response rating) | plant injury at 125 g/ha (corn (Zea mays); 125 g ai/ha, postemergence, visual injury on 0 to 100 scale (0 no effect, 100 complete control), approx. 10 d, read-out: Corn plant response rating) | pest or weed control at 125 g/ha ([9]; 125 g ai/ha, postemergence, visual injury on 0 to 100 scale (0 no effect, 100 complete control), approx. 10 d, read-out: Blackgrass plant response rating) | pest or weed control at 31 g/ha ([10]; Postemergence, 31 g ai/ha, visual injury after approx. 10 d, 0 to 100 scale, 0 no effect, 100 complete control, read-out: Plant response rating, Foxtail, Giant)
